Assay [1] has as its system CXCR2. Nature of the assay: CXCR2 staining of neutrophils following IL-8 exposure. The format is cell-based, Human. To be noted: single pulse of IL-8 at 12 nM, 120 nM, 1.2 μM and 2.4 μM; data not shown. How it is done:
(§1) Calcium flux in neutrophils in response to IL-8 was measured as previously described (Mahon M. J., et al. 2004 J Biol Chem 279:23550-8). Briefly, isolated cells (˜10^7/ml) were transferred into a balanced salt solution (127 mM NaCl, 3.8 mM KCl, 1.2 mM KH2PO4, 1.2 mM CaCl2, 0.9 mM MgCl2, 5 mM glucose, and 10 mM HEPES, pH 7.4), incubated for 45 min at room temperature with 1.25 μM Fura-2 acetoxymethyl ester (Molecular Probes, Eugene, Oreg.), washed with the balanced salt solution, and unloaded for 15 min at room temperature. […] Calcium flux in response to indicated concentrations of IL-8 (Akahoshi T., et al. 1994 Lymphokine Cytokine Res 13:113-6) was measured by fluorescence of cells excited at 340 and 380 nm using a PTI Deltascan dual-wavelength fluorimeter (Photon Technologies Incorporated, Lawrenceville, N.J.), observed through a Nikon Diaphot 200 microscope (Melville, N.Y.) and Sensys charge-coupled device camera (Photometrics, Ltd., Tucson, Ariz.), and analyzed using the Poenie-Tsien ratio with Imagemaster 2 software (Photon Technologies Incorporated). Signaling responses to IL-8 at designated concentrations were calibrated against maximal calcium flux as determined by treatment with 5 μM ionomycin (Sigma). CXCR2 expression on neutrophils pre- and post-exposure to 120 nM, 1.2 μM and 2.4 μM IL-8 was determined using PE-labelled anti-CXCR2 IgGl antibody (R & D systems). […]

Assay [2] concerns Primary human neutrophils. Nature of the assay: Calcium flux in neutrophils in response to IL-8 (Fura-2). The following applies: calibrated against 5 μM ionomycin. The format is cell-based. How it is done:
as §1
On the technique in general: Calcium assays in cells follow changes in intracellular calcium, usually with a dye or a luminescent sensor.

For assay [3], the target named is T1, CXCR2 (Homo sapiens, UniProt P25025).
T1 construct: endogenous in cells; host or cells: neutrophils (isolated primary cells)
T1 sequence (P25025 1-360): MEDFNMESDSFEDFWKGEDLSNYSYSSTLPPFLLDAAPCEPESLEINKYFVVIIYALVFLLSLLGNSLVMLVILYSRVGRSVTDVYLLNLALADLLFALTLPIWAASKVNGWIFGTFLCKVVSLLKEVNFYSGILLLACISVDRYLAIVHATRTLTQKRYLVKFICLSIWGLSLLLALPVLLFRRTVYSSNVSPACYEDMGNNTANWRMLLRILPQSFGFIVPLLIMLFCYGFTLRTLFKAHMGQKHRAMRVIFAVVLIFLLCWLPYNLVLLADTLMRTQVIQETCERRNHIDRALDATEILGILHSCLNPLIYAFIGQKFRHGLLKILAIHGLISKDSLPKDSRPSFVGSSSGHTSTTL
Nature of the assay: Sequential calcium flux in neutrophils to IL-8 after SB225002 pretreatment. It counts as cell-based. To be noted: 1 pM SB225002; IL-8 1.2 μM and 1.2 μM or 600 nM and 1.2 μM; p<0.05. The procedure: as §1

Assay [4] deals with T2, CXCR4 (Mus musculus, UniProt P70658). To be noted: Matthys et al. 2001; cited from earlier work.
T2 sequence (P70658 whole entry): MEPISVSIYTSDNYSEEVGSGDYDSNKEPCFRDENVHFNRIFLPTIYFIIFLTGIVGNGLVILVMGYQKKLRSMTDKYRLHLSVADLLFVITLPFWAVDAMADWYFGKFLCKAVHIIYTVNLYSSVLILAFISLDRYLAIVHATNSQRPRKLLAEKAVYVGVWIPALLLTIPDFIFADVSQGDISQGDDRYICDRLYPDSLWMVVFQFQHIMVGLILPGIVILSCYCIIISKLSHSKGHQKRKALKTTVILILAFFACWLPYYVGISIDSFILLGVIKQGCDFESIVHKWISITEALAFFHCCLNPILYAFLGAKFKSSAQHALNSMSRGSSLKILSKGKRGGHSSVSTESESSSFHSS
Assay [5] deals with T2, CXCR4.
Description: Pregnant females at day 15.5 of gestation were sacrificed by CO2 asphyxiation, and embryos were chilled on ice. Fetal thymuses were carefully removed under a dissecting microscope, taking care to keep the anatomically identifiable lobes joined together. Thymuses were placed in HBSS and kept on ice. Individual thymuses were gently transferred onto the surface of a polycarbonate membrane of a 6.5 mm transwell insert with a 3.3 μm pore size (Corning Incorporated Life Sciences Action, Mass.). DMEM (360 μl) supplemented with 2 mM glutamine, 100 U/ml penicillin, 100 μg/ml streptomycin, 2×10^5 M 2-mercaptoethanol, 0.1 mM non-essential amino acids, 10% HEPES, and 10% FBS (Sigma) was added to the lower chamber of the transwell. This amount of medium allowed the thymus to be at the interface of medium and air. The cultures were incubated at 37° C., in 5% CO2, and medium was replaced every 3 days. Thymic emigrants, were collected from each thymus by transferring each transwell insert containing one thymus onto to a new well 24 hours before harvesting emigrant present in the lower chamber for analysis. On the day of analysis, two thymuses were harvested, and emigrants were pooled from at least 4 thymic lobes from CXCR4^+/− CXCR4^−/− mice. For each time-point, CXCR4^+/− and CXCR4^−/− thymuses from one or two pregnant females bred at the same time were analyzed, aiming to minimize differences in the stage of maturation and total cell recovery. E15.5 WT (CXCR4^+/+) thymuses were obtained from fetuses from C57BL/16 mice breedings. […] FTOC from DPC 15.5 CXCR4+/− or CXCR4−/−embryos were also prepared as above, and AMD3100 (0.5 or 1 gg/ml; Sigma) was added to the lower chamber of day 14 FTOC.
Thymic lobes were harvested and transferred to a 4-ml round bottom polystyrene tube containing 0.4 mg/ml collagenase (from Clostridium histolyticum, type V, clostridiopeptidase A, SIGMA Chemicals), 10% FBS, EDTA0.2 mg/ml and 0.2 M phosphate. After 30 minutes incubation at 37° C., thymuses were disaggregated by gentle pipetting until no visible fragments remained. Cell suspensions were washed once in HBSS and 10% FBS to prevent further enzyme action. Cells were resuspended in PBS containing 0.1% bovine serum albumin and counted using a hemocytometer. After incubation for 30 minutes on ice with 0.5 gg of 2.4G2 antibody to block Fc binding, direct staining for three or four color analysis was performed. Cell suspensions were incubated for 15 minutes at 4° C. and then washed twice with staining buffer and analyzed using a FACSCalibur (BD Biosciences). Data analysis was performed with FlowJo software (Tree Star, Inc. Ashland, Oreg.). […] For annexin V and PI staining, an Annexin V-FITC Apoptosis Detection Kit I was used (BD Pharmingen). […] Mean log fluorescence intensity (MFI) values were obtained by subtracting the MFI of the isotype control from the MFI of the positively stained sample. To evaluate whether the differences between the peaks of cells were statistically significant with respect to controls, the Kolmogorov-Smirnov test for analysis of histograms was used.
Assay [6] concerns the target T2, CXCR4. To be noted: B16/OVA.MSCV vs B16/OVA.SDF-1-high tumor, OT-I T-cells incubated with AMD3100 0.08 and 0.25 μg/ml before adoptive transfer, MRI 24 hours, mean±SD, n=3. The procedure: (§2) In some experiments, activated OT-I CD8+ T cells were also preincubated with the CXCR4 antagonist, AMD3100, at concentrations of 0.08 and 0.25 μg/ml (15 min at RT) in a 12-well plate at a density of 1×10^7 cells/well prior to adoptive transfer (Hatse, S., et al. 2002, FEBS Lett 527:255). Survival analysis was evaluated in mice after in vivo generation of a tumor-specific memory T cell compartment (Bathe, O. F., et al. 2001, J Immunol 167:4511). 21 days after adoptive transfer of 1×10^7 OT-I CD8+ T cells (in 500 μl of HBSS via tail vein injection), two groups of mice (4 or 6 per group) were challenged s.c. in the right flank with 2×10^5 B 16/OVA.SDF-1-high cells or B16/OVA.MSCV control cells in 200 μl of HBSS using a 27 G needle (Bathe, O. F., et al. 2001, J Immunol 167:4511). […] Detectable tumor was considered to be >5 mm^2. Mice were sacrificed when tumors reached 400 mm^2 in size.

Assay [7] addresses T2, CXCR4. The following applies: 48 hours. The procedure:
as §2
Immunized mice and mice that received adoptive transfer of OT-I CD8+ T-cells were evaluated for T cell infiltration of tumors by immunohistochemistry. Animals were sacrificed and tumors excised with preservation of the capsule. Resected tumors were fixed in 10% neutral buffered formalin and embedded in paraffin. Serial 5 μm sections of tumors were stained with H & E or with polyclonal anti-CD3 Ab or isotype control Ab, followed by incubation with secondary HRP-labeled anti-rabbit Dako EnVision Ab (DakoCytomation). T-cell infiltration was quantified by counting four random 200× field powers of the turner sections, each […] in area.

In assay [8] the target is T2, CXCR4. To be noted: OT-I preincubated with AMD3100 5 μg/ml; flat-bottom wells; SIINFEKL-pulsed targets; ±SEM.
Protocol: Cytotoxicity of OT-I CD8+ cells was measured in a standard ^51Cr-release assay in round-bottom, wells as previously described (Brainard, D. M, et al. 2004. J Virol 78:5184-5193). The assay was also modified and performed in flat-bottom wells in order to determine the effects of CTL migration on killing efficacy in the context of target cells expressing SDF-1 (Hahne, M., et al. 1996 Science 274:1363-1366). B16/OVA.MSCV or B16/OVA.SDF1-high target cells were labeled with 100 μCi of ^51CR per 10^6 cells for 1 hour at 37° C. […] 30 μl of supernatant were harvested, and the radioactivity was counted in a γ-radiation counter. Cytotoxicity was expressed either as percent of lysis or as Lytic Unit 30 (LU30) as previously described (Brainard, D. M., et al. 2004. J Virol 78:5184-5193, Bryant, J., et al. 1992. J Immunol Meth 146:91-103). ^51Cr release assays were also performed in flat-bottom cells after preincubation of OT-I CD8+ T cells with the CXCR4 antagonist AMD3100 at concentrations of 0.25 and 1 μg/ml (Hatse, S. 2002 FEBS LETT 527:255-262).
For the next assay, the system named is B16/OVA.MSCV tumors. The following applies: naïve mice, AMD3100 1.25 mg/kg s.c. twice a day from first day after challenge, average±SD. How it is done:
(§3) For in vitro growth, 5×10^5 tumor cells were seeded in T25 flasks (Becton Dickinson, Le Pont De Claix, France). Cultures were harvested daily for 3 consecutive days and viable cell yield determined. Tumorigenicity was determined by subcutaneous (s.c.) injection of 2×10^5 viable cells into the flank of mice in a total volume of 200 μl PBS using a 27 G needle. Tumor growth was also evaluated in naïve mice challenged with B16/OVA.MSCV or B16/OVA.SDF-1-high cells and injected twice a day s.c. with the CXCR4 antagonist. AMDS3100 (1.25 mg/kg s.c., Sigma). Tumor growth was measured every three or four days using a caliper. Tumor volume was recorded as the product of two orthogonal diameters (axb; a=longest diameter; b-orthogonal width) (Hanson, J. L., et al. 2000 Immunity 13:265-276). In immunization studies, mice were injected s.c. (at multiple sites) with 1×10^5 Irradiated (8568 cGy) B16/OVA.pc cells in a volume of 200 μl at d 0 and d 10. Fourteen days after immunization, mice were challenged s.c. in both flanks with 2×10^5 B16/OVA.MSCV B16/OVA.SDF-1 high cells, and tumor growth was measured as described above (Dranoff, G., et al. 1993 Proc Natl Acad Sci USA 90:3539-3543). In some experiments, mice were immunized with B16/OVA.SDF-1-high cells and then challenged with B16/OVA.SDF-1-high or B16/OVA.SDF-1-low cells. Mice were sacrificed when one or both tumors reached 200 mm^2 in volume.

Assay [9] concerns B16/OVA.SDF-1-high tumors. To be noted: naïve mice, AMD3100 1.25 mg/kg s.c. twice a day, average±SD. How it is done:
as §3

Assay [10] addresses T2, CXCR4. To be noted: T-cells pre-incubated with 5 μg/ml AMD3100 for 30 min; 15 hours incubation.
Protocol: The CXCR4 receptor was blocked by pre-incubation of T-cells with 5 μg/ml AMD3100 (Sigma, St. Louis, Mo.) for 30 min at 37° C. as previously described (70). Trajectories of migration were determined for randomly selected T-cells using Metamorph software. Cell path tracking and mean chemotropic indices (MCI) as a measurement of directionality of movement towards or away from β-TC3 cells were calculated using MetaMorph and MatLab software as previously described where an MCI of +0.1 to −0.1 indicates chemokinesis, >+0.1 indicates chemotaxis and <−0.1 indicates fugetaxis (Moghe, P. V., et al. 1995 J Immunol Methods 180, 193-211; McCutcheon, M. (1946) Physiological Reviews 26, 319).
[11] abbreviates: OT-I CD8+ T-cells incubated with 0.08 μg/ml AMD3100 before adoptive transfer.
The mark [12] stands for this setting: OT-I CD8+ T-cells incubated with 0.25 μg/ml AMD3100 before adoptive transfer.

Where two headings read alike, the source gives them in different places.

As for “IL-8: human Interleukin-8 (72 amino acids; PeproTech), chemokine”, the “reduction of CXCR2 mean fluorescent intensity from baseline” value in the assay with CXCR2 [1] is given as 2- to 3 fold. Further, the “Peak calcium flux response (percentage of maximal calcium flux)” value in assay [2] (120 nM IL-8) was found to be 48%+/−5.1; in assay [2] (1.20 μM IL-8), 83%+/−7.9.
As for `O=C(Nc1ccc([N+](=O)[O-])cc1O)Nc1ccccc1Br` [SB225002], at CXCR2 [3], the “sequential peaks of calcium flux following IL-8 stimulation” value is recorded as “significantly reduced”.
With `c1cc(CN2CCCNCCNCCCNCC2)ccc1CN1CCCNCCNCCCNCC1` [AMD3100], on CXCR4 [4], the “intracellular Ca+ flux and chemotactic responses of murine splenocytes to SDF1” value is “inhibit”. The “total number of cells in the thymus” value at CXCR4 [5] (day 14 FTOC incubated 24 hours with 1 μg/ml AMD3100) was 349±99.5 ×10^3/lobe. Besides, on CXCR4 [5] (day 14 FTOC, 24 hours with 1 μg/ml AMD3100, mean±SEM), the “SP CD4 thymocytes emigrating from thymus” value is reported as 1.1±0.15 ×10^3/love. The “CD62L^high CD4 SP cells in the thymus vs untreated” value on CXCR4 [5] (day 14 FTOC, 24 hours with 1 μg/ml AMD3100, p=0.017) is “retention of CD62L^high CD4 SP cells in the thymus”. Besides, the “CD62L expression by SP CD8 thymocytes” value at CXCR4 [5] (day 14 FTOC, 24 hours with 1 μg/ml AMD3100, p=0.56) is reported as “not affected”. Besides, the “total number of SP CD8 emigrants vs untreated FTOC” value at CXCR4 [5] (day 14 FTOC, 24 hours with 1 μg/ml AMD3100, p=0.93) is “did not differ”. Moreover, the “ratio of T2 fit value in the right and left tumors” value is reported as 1+0.12 on CXCR4 [6] and 0.55±0.13 on CXCR4 [6] (listed as AM3100). Also, the “CD3+ T-cell infiltration into B16/OVA.SDF-1-high tumors” value on CXCR4 [7] (setting [11]) was found to be 101±10.6 cells/mm^2; at CXCR4 [7] (setting [12]) it was 88.1±16.9 cells/mm^2. For the same molecule, the “number of T-cells infiltrating B16/OVA.MSCV tumors” value was 109±3.2 cells/mm^2 on CXCR4 [7] (setting [11]) and 93±14.8 cells/mm^2 at CXCR4 [7] (setting [12]). The “LU30, killing of B16/OVA.SDF-1-high cells by OT-I CD8+ T-cells” value at CXCR4 [8] is recorded as 77×10^6±15. The “average time to tumor growth to a size of 200 mm^2” value in the assay with B16/OVA.MSCV tumors stood at 22 ± 2 days. Besides, the “time for tumor growth to 200 mm^2” value in [9] was 23.6 ± 2.08 days. In addition, the “T-cell migration away from SDF-1 secreting MSCV.SDF-1 bright cells” value on CXCR4 [10] is given as “failed to migrate away from SDF-1 secreting cells”.

The record behind these values is US10406217B2, “Antifugetactic agents for the treatment of cancers” (The General Hospital Corporation, priority 2004, dated 2019).
